Assay results as given in article PMC6372667 (Experimental & Molecular Medicine, 2019).
Where two headings read alike, the source gives them in different places.

Assays:
[1] = biological target: T1, BACE1 (human recombinant β-secretase) (Homo sapiens, UniProt P56817); experiment: In vitro BACE1 FRET enzyme assay; format: biochemical
Excerpt: (§1) BACE1 (human recombinant β-secretase) ([…]) and the BACE1 FRET (fluorescence resonance energy transfer) assay kit Red were purchased from ThermoFisher Scientific (P2985; Waltham, MA, USA). […] For the cell culture experiment, Dulbecco’s modified Eagle’s medium (DMEM), Opti-MEM, fetal bovine serum (FBS), and penicillin/streptomycin were obtained from Capricorn Scientific (Ebsdorfergrund, Germany). β-secretase inhibitor III (β-SI) was purchased from Calbiochem (Darmstadt, Germany). The protease inhibitor mixture (a mixture of AEBSF, pepstatin A, E-64, bestain, leupeptin, and aprotinin) was purchased from Sigma-Aldrich (St. Louis, MO, USA). Enzyme-linked immunosorbent assay (ELISA) kits for Aβ40 and Aβ42 were obtained from IBL (Kunma, Japan). All chemicals and solvents used were reagent grade, purchased from commercial sources, and used as received.
The BACE1 FRET assay was carried out according to the manufacturer’s instructions with slight modifications as previously described. The assay was performed in a […] black plate using a multi-pipette.

Electric eel AChE [2] = biological target: T2, Electric eel AChE (Electrophorus electricus, UniProt O42275); experiment: In vitro cholinesterase enzyme assay (Ellman), AChE; format: biochemical
T2 construct: purchased Sigma-Aldrich Co
Excerpt: as §1
(§2) The inhibitory activities of pterosin derivatives against cholinesterases were measured using the method developed by Ellman et al.[32]. The reaction mixture contained 140 μL of sodium phosphate buffer (pH 8.0), 20 μL of test sample solution (final concentration of the compound 100 μM), and 20 μL of AChE or BChE solution, mixed and incubated for 15 min at room temperature. […] The reactions were initiated following the addition of 10 μL of DTNB and 10 μL of acetyl thiocholine iodide for the AChE assay or butyryl thiocholine chloride for the BChE assay in 96-well microplates, which were incubated for 15 min.

horse serum BChE [3] = biological target: T3, horse serum BChE (Equus caballus, UniProt P81908); experiment: In vitro cholinesterase enzyme assay (Ellman), BChE; format: biochemical
T3 construct: horse serum BChE (EC 3.1.1.8); purchased Sigma-Aldrich Co; host or cells: horse serum
Excerpt: as §1, §2

[4] = biological target: T1, BACE1 (human recombinant β-secretase); experiment: Kinetic analysis of BACE1 inhibition (Dixon and Lineweaver−Burk plots); format: biochemical
Protocol: (§3) The Ki was determined by interpretation of the Dixon plot, with the value of the x-axis intercept taken as −Ki.
Dixon plots for BACE1 inhibition by pterosin derivatives.
Dixon plots for BACE1 inhibition by pteroside derivatives.

Electric eel AChE [5] = biological target: T2, Electric eel AChE; experiment: Kinetic analysis of AChE inhibition (Dixon and Lineweaver−Burk plots); format: biochemical
Protocol: as §3
Dixon plots for AChE inhibition by pterosin derivatives. (2S,3R)-Pterosin C (A), (2R,3R)-pterosin C (B), and (2R)-pterosin B (C) were tested in the presence of substrate concentrations of 0.1 mM (●), 0.3 mM (○), and 0.6 mM (▼). Lineweaver-Burk plots for AChE inhibition were generated with inhibitor concentrations of 0 µM (Δ), 4 µM (▼), 20 µM (○), and 100 µM (●) for (2S,3R)-pterosin C (D) and (2R,3R)-pterosin C (E); and 0 µM (Δ), 2 µM (▼), 10 µM (○), and 50 µM (●) for (2R)-pterosin B (F).
Dixon plots for AChE inhibition by pteroside derivatives. (2R)-pteroside B (A), (2R,3R)-pteroside C (B), and (3S)-pteroside D (C) were tested in the presence of substrate concentrations of 0.1 mM (●), 0.3 mM (○), and 0.6 mM (▼). Lineweaver-Burk plots for AChE inhibition were generated with inhibitor concentrations of 0 µM (Δ), 0.8 µM (▼), 4 µM (○), and 20 µM (●) for (2R)-pteroside B (D), (2R,3R)-pteroside C (E), and (3S)-pteroside D (F).

horse serum BChE [6] = biological target: T3, horse serum BChE; experiment: Kinetic analysis of BChE inhibition (Dixon and Lineweaver−Burk plots); format: biochemical
Protocol: as §3
Dixon plots for BChE inhibition by pterosin derivatives. (2S,3R)-Pterosin C (A), (2R,3R)-pterosin C (B), and (2R)-pterosin B (C) were tested in the presence of substrate concentrations of 0.2 mM (●), 0.4 mM (○), and 0.8 mM (▼).
Dixon plots for BChE inhibition by pteroside derivatives. (2R)-pteroside B (A), (2R,3R)-pteroside C (B), and (3S)-pteroside D (C) were tested in the presence of substrate concentrations of 0.2 mM (●), 0.4 mM (○), and 0.8 mM (▼). Lineweaver-Burk plots for BChE inhibition were generated with inhibitor concentrations of 0 µM (Δ), 4 µM (▼), 20 µM (○), and 100 µM (●) for (2R)-pteroside B (D); 0 µM (Δ), 0.8 µM (▼), 4 µM (○), and 20 µM (●) for (2R,3R)-pteroside C (E) and (3S)-pteroside D (F).

in vitro = in vitro ADME; conditions: for Papp at 4 h, 25 µg/mL: pig, PAMPA, read-out: PAMPA-BBB permeability Pe
Protocol: PAMPA (parallel artificial membrane permeation assay) was used as a high-throughput assay to predict BBB permeation. Porcine polar brain lipid (PBL) was used as an artificial membrane to predict BBB permeation. Initially, the test compound was dissolved in DMSO at 5 mg/mL. This compound stock solution (10 µL) was diluted 200-fold in a universal buffer at pH 7.4 and mixed with a multi 8-channel pipette to obtain the secondary stock solution (final concentration 25 µg/mL). The secondary stock solution (200 µL) was placed in the donor wells. The filter membrane was coated with PBL in dodecane (4 mL volume of 20 mg/mL PBL in dodecane), and 5 µL of BBB-1 lipid solution was spread on PBL by pipette. The acceptor well was filled with […] of Acceptor Sink Buffer. The acceptor filter plate was cautiously positioned on the donor plate to assemble a “sandwich” (comprising an aqueous acceptor, artificial lipid membrane and aqueous donor with test compound on the top, middle and bottom, respectively). The test compound diffuses from the donor well to the acceptor well through the lipid membrane. After 4 h of incubation at pH 7.4 and 25 °C, the concentration of the compound in the acceptor, donor, reference and blank wells was estimated with a UV plate reader, Epoch Microplate Spectrophotometer (BioTek Instruments, Inc., Winooski, VT, USA). […] Samples were analyzed in quadruplets, and the average of the four runs was reported. To monitor the consistency of the analysis set, quality control standards were run with each sample set.
PAMPA-BBB, an in vitro artificial membrane permeability assay for the BBB, is one of the most reliable physicochemical screening tools in the early stage discovery of CNS-targeted drugs. The PAMPA-BBB system models the transcellular passive diffusion of chemicals across the BBB and measures strictly passive transport mechanisms via an artificial lipid membrane on effective permeability (Pe, cm/s).

[7] = system: SH-SY5Y human neuroblastoma; experiment: MTT cytotoxicity assay, SH-SY5Y; format: cell-based; conditions: 24 h
Protocol: (§4) Cytotoxicity was assessed using the MTT assay. Briefly, the cells were seeded into a 96-well plate at a density of 1×10^5 cells per well in 100 µL of corresponding media and incubated at 37 °C in an incubator under 5% CO2 tension for 24 h. The culture media were then replaced with 100 µL of fresh serum-free media in the presence of varied concentrations of pterosin derivatives, and cells were incubated for an additional 24 h. The control was treated with an equal amount of DMSO present in the assay for a 5 mM concentration. Then, 100 µL of MTT solution (0.5 mg/mL in Phosphate Buffered Saline (PBS)) was added to each culture. To measure the proportion of surviving cells, the media were replaced with 100 µL of DMSO 2 h after the administration of MTT solution. The absorbance was measured at 570 nm using a spectrophotometric plate reader (Molecular Devices, Sunnyvale, CA, USA).

C6 rat glial cells = experiment: MTT cytotoxicity assay, C6; format: cell-based; conditions: 24 h
Protocol: as §4

[8] = system: NIH3T3 mouse embryo fibroblasts; experiment: MTT cytotoxicity assay, NIH3T3; format: cell-based; conditions: 24 h
Protocol: as §4

B16F10 mouse melanoma = experiment: MTT cytotoxicity assay, B16F10; format: cell-based; conditions: 24 h
Protocol: as §4

[9] = Dixon and Lineweaver−Burk plots
[10] = mean ± S.D. of three experiments
[11] = mean ± S.D. of three experiments, read-out: IC50 AChE
[12] = mean ± S.D. of three experiments, read-out: IC50 BChE
[13] = 4 h, pH 7.4, 25 °C, mean ± SD of quadruple experiments

T1 sequence (P56817 46-501): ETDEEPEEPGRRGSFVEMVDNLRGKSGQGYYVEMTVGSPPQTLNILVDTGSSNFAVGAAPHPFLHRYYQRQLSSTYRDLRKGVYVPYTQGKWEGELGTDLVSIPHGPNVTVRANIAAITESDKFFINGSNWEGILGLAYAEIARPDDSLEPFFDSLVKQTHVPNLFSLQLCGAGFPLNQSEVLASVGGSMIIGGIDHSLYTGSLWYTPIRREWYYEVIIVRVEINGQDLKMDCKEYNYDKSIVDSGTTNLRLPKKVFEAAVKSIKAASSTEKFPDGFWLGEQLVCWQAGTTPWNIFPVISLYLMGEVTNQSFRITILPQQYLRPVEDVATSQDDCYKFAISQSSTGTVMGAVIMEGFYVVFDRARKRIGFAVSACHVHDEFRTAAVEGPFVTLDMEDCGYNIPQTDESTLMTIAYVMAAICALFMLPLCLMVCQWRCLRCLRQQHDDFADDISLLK
T3 sequence (P81908 whole entry): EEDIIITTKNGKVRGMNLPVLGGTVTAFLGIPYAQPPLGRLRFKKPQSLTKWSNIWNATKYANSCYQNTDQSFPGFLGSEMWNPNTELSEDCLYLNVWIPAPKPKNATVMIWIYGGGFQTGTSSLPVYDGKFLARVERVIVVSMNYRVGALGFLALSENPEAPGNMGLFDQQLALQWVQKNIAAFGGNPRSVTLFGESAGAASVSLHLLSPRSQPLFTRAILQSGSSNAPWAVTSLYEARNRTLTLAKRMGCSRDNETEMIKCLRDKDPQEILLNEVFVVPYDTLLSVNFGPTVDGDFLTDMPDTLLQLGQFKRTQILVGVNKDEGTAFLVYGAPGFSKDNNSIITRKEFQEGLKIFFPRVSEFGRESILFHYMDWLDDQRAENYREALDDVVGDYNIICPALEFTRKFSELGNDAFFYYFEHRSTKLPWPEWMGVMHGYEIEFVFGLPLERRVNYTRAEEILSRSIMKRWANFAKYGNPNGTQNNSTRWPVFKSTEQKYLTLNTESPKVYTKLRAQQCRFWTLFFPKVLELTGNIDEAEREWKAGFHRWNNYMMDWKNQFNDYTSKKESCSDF
T2 sequence (O42275 24-633): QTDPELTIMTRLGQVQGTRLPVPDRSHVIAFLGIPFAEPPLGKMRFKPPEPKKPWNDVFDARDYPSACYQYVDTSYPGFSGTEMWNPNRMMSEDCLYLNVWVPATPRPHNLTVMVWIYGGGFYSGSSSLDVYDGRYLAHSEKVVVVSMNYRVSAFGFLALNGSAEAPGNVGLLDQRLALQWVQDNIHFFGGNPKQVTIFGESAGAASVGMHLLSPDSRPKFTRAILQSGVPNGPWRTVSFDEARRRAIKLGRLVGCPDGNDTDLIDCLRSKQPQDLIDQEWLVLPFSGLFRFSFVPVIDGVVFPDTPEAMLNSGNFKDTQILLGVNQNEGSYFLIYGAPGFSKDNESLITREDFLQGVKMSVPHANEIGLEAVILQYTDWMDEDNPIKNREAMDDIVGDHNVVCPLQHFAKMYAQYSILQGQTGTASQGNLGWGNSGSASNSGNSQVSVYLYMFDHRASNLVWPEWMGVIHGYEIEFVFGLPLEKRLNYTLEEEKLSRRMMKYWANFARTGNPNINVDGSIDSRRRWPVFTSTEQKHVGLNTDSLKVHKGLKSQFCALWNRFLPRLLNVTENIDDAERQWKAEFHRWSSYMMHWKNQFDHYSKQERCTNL

Structure (SMILES) | LD50 Based on MTT Assay, SY-SY5Y [7] | LD50 Based on MTT Assay, C6 (C6 rat glial cells) | LD50 Based on MTT Assay, NIH3T3 [8] | LD50 Based on MTT Assay, B16F10 (B16F10 mouse melanoma) | IC50 [1, 10] [µM] | IC50 (Electric eel AChE [2]; [11]) [µM] | IC50 (horse serum BChE [3]; [12]) [µM] | Papp at 4 h, 25 µg/mL (in vitro; [13]) [×10⁻⁶ cm/s] | also measured
Cc1cc2c(c(C)c1CCO)C(=O)[C@H](C)[C@H]2O [(2R,3R)-Pterosin C, (2R,3R)-pterosin C] | 719 ± 25 µM | 694 ± 9.7 µM | >5,000 µM | >5,000 µM | – | – | – | – | IC50 [1]: 26.2 ± 6.3 µM; IC50 (Electric eel AChE [2]): 23.2 ± 4.6 µM; IC50 (horse serum BChE [3]): 20.3 ± 0.88 µM; Ki [4]: 27.6 µM; Inhibition type BACE1 [4, 9]: Mixed-type; Ki (Electric eel AChE [5]): 29.6 µM; Inhibition type AChE (Electric eel AChE [5]; [9]): Noncompetitive; Ki (horse serum BChE [6]): 4.77 µM; Inhibition type BChE (horse serum BChE [6]; [9]): Mixed-type; log Pe (in vitro): -5.70; Papp at 4 h, 25 µg/mL (in vitro; pH 7.4): 1.98 ± 0.17 ×10⁻⁶ cm/s
Cc1cc2c(c(C)c1CCO)C(=O)C(C)(COC1OC(CO)C(O)C(O)C1O)C2 [(2S)-Pteroside A2, (2S)-pteroside A2] | 1,010 ± 60 µM | >5,000 µM | >5,000 µM | >5,000 µM | 94.4 ± 4.5 | 39.3 ± 1.9 | 119 ± 2.5 | 0.54 ± 0.51 | –
Cc1c(CCO[C@@H]2O[C@H](CO)[C@@H](O)[C@H](O)[C@H]2O)c(CO)cc2c1C(=O)[C@@H](C)C2 [(2S)-Pteroside P, (2S)-pteroside P] | 1,090 ± 99 µM | >5,000 µM | >5,000 µM | >5,000 µM | > 125 | 57.5 ± 3.2 | 33.2 ± 3 | – | IC50 BACE1 [1, 10]: inactive at the concentrations tested
Cc1cc2c(c(C)c1CCO)C(=O)[C@](C)(CO)C2 [(2S)-Pterosin A, (2S)-pterosin A] | 1,210 ± 110 µM | >5,000 µM | >5,000 µM | 522 ± 25 µM | > 125 | 56.7 ± 2.6 | 67.3 ± 3.3 | 6.26 ± 0.24 | IC50 BACE1 [1, 10]: inactive at the concentrations tested; log Pe (in vitro; PAMPA-BBB): -5.20; BBB permeation class (in vitro; PAMPA-BBB, classified by Pe, given in words): high BBB permeation
Cc1cc2c(c(C)c1CCO[C@@H]1O[C@H](CO)[C@@H](O)[C@H](O)[C@H]1O)C(=O)[C@@H](C)[C@H]2O [(2S,3R)-Pteroside C, (2S,3R)-pteroside C] | 711 ± 35 µM | >5,000 µM | >5,000 µM | >5,000 µM | 28.9 ± 2.2 | 9.17 ± 0.82 | 13 ± 0.14 | 0.29 ± 0.34 | –
Cc1cc2c(c(C)c1CCO[C@@H]1O[C@H](CO)[C@@H](O)[C@H](O)[C@H]1O)C(=O)C(C)(C)C2 [Pteroside Z, pteroside Z] | 1,430 ± 210 µM | 2,130 ± 62 µM | >5,000 µM | >5,000 µM | 53.3 ± 1.2 | 24.1 ± 1.1 | 5.31 ± 0.19 | 0.61 ± 0.17 | –
Cc1cc2c(c(C)c1CCO)C(=O)C(C)(C)C2 [Pterosin Z, pterosin Z] | 495 ± 24 µM | 1,850 ± 65 µM | 553 ± 37 µM | 618 ± 71 µM | 80 ± 5.9 | – | – | – | IC50 (Electric eel AChE [2]): 46.5 ± 3.4 µM; IC50 (horse serum BChE [3]): 80.1 ± 6.8 µM
